In ChEMBL document CHEMBL1143206, “Carbonic anhydrase inhibitors: copper(II) complexes of polyamino-polycarboxylamido aromatic/heterocyclic sulfonamides are very potent inhibitors of the tumor-associated isoforms IX and XII” (Bioorg Med Chem Lett, 2008):

Each compound was assayed against Carbonic anhydrase 12 (Homo sapiens, UniProt O43570).
Sequence of Carbonic anhydrase 12 (O43570 whole entry): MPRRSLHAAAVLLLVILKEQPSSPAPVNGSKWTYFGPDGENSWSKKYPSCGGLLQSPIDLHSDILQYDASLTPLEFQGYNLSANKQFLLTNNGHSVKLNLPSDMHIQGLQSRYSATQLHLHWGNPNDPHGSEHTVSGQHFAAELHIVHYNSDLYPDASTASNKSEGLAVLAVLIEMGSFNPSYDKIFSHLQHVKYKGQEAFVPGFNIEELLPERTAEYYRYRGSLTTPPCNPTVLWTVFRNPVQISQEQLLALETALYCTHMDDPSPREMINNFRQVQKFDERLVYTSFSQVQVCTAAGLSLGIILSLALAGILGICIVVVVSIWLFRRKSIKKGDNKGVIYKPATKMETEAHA
Description: Inhibition of human recombinant CA12 by CO2 hydration stopped flow assay
`O=C1NS(=O)(=O)c2ccccc21` [SACCHARIN] showed a Ki of 633 nM.

Each compound was assayed against Carbonic anhydrase 9 (Homo sapiens, UniProt Q16790).
Description: Inhibition of human recombinant CA9 by CO2 hydration stopped flow assay
For `NS(=O)(=O)c1ccc(NC(=O)CN(CCN(CCN(CC(=O)O)CC(=O)Nc2ccc(S(N)(=O)=O)cc2)CC(=O)O)CC(=O)O)cc1`, the Ki was 8.4 nM.
`NS(=O)(=O)c1ccc(CNC(=O)CN(CCN(CC(=O)O)CC(=O)NCc2ccc(S(N)(=O)=O)cc2)CC(=O)O)cc1` showed a Ki of 7.3 nM.
`NS(=O)(=O)c1cccc(NC(=O)CN(CCN(CC(=O)O)CC(=O)Nc2cccc(S(N)(=O)=O)c2)CC(=O)O)c1` gave a Ki of 7.9 nM.
`NS(=O)(=O)c1ccc(CNC(=O)CN(CCN(CCN(CC(=O)O)CC(=O)NCc2ccc(S(N)(=O)=O)cc2)CC(=O)O)CC(=O)O)cc1` showed a Ki of 8.7 nM.
`NS(=O)(=O)c1ccc(CCNC(=O)CN(CCN(CCN(CC(=O)O)CC(=O)NCCc2ccc(S(N)(=O)=O)cc2)CC(=O)O)CC(=O)O)cc1` was tested, and the Ki was 7.5 nM.
`NS(=O)(=O)c1cccc(NC(=O)CN(CCN(CCN(CC(=O)O)CC(=O)Nc2cccc(S(N)(=O)=O)c2)CC(=O)O)CC(=O)O)c1` showed a Ki of 9.6 nM.
`NS(=O)(=O)c1ccc(NC(=O)CN(CCN(CC(=O)O)CC(=O)Nc2ccc(S(N)(=O)=O)cc2)CC(=O)O)cc1` gave a Ki of 7.8 nM.
`NS(=O)(=O)c1ccc(CCNC(=O)CN(CCN(CC(=O)O)CC(=O)NCCc2ccc(S(N)(=O)=O)cc2)CC(=O)O)cc1` showed a Ki of 8.2 nM.
With `NS(=O)(=O)c1nnc(NC(=O)CN(CCN(CC(=O)O)CC(=O)Nc2nnc(S(N)(=O)=O)s2)CC(=O)O)s1` the Ki was 8.5 nM.
`NS(=O)(=O)c1nnc(NC(=O)CN(CCN(CCN(CC(=O)O)CC(=O)Nc2nnc(S(N)(=O)=O)s2)CC(=O)O)CC(=O)O)s1` was tested, and the Ki was 8.3 nM.
`O=C1NS(=O)(=O)c2ccccc21` [SACCHARIN] showed a Ki of 103 nM.
